From paper PMC10049354, “Anti-Inflammatory Effects and Photo- and Neuro-Protective Properties of BIO203, a New Amide Conjugate of Norbixin, in Development for the Treatment of Age-Related Macular Degeneration (AMD)” (International Journal of Molecular Sciences, 2023)

Columns and labels:
[1] = tested on: primary porcine RPE cells; experiment: RPE phototoxicity: photoprotection of RPE cells exposed to A2E and blue light; assay type: cell-based, pig; details: all concentrations from 10 to 20 μM; A2E 30 μM + blue light
Description: RPE cells were obtained from pig eyes, as previously described. RPE cells were seeded on a 96-well plate at a density of 1.5 × 10^5 cells/cm^2 in DMEM 2% FCS. BIO201, BIO203, or its pure enantiomers were added in increasing concentrations to the culture medium 48 h before illumination. A2E was added to the medium at a final concentration of 30 μM, and 19 h later, blue-light illumination was performed for 50 min using a 96 blue-led device (Durand, St Clair de la Tour, France) emitting at 470 nm (1440 mcd, 8.6 mA). Just before illumination, the culture medium was replaced by a modified DMEM without any photosensitizer and with 2% FCS. Twenty-four hours after blue-light irradiation, all cell nuclei were stained with Hoechst 33342, and nuclei of dead cells with ethidium homodimer 2, fixed with paraformaldehyde (4% in PBS, 10 min) and 9 pictures per well were captured using a fluorescence microscope (Nikon TiE) equipped with a CoolSNAP HQ2 camera and driven by Metamorph Premier On-Line program. Quantification of live cells was performed using Metamorph Premier Off-Line and a homemade program by subtraction of dead cells from all cells. For cytokines mRNA analysis, RPE cells were seeded in 24-well plates and left untreated or treated with A2E or BIO203 alone or A2E plus BIO203. After 48 h, cells were lysed using the lysis buffer from the NucleoSpin® RNA kit, and the samples were stored at −80 °C.

[2] = tested on: albino rats exposed to blue-light-induced photoreceptor degeneration; experiment: Blue-light damage (BLD) study in albino rats: ERG; assay type: in vivo, rat; details: 50 mg/kg, four IP administrations; positive controls
Description: The ERG in rats was performed using the electrophysiological system RETI-animal® from Roland Consult. ERG was recorded on both eyes from overnight dark-adapted animals. Rats were anesthetized by an intramuscular injection of a mix of Rompun® (xylazine)/Imalgene® (ketamine) before ERG measurement. Ten to fifteen minutes before measurement, one drop of Mydriaticum® (0.5% tropicamide) was instilled for pupillary dilatation. The A-wave and B-wave implicit times (ms) and amplitudes (µV) were measured for each ERG. The B-wave amplitude (value and %) was given as informative data. ERG parameters: Ganzfeld Q450C, Color: white maximum, Maximum intensity: 3 cd/m^2 (0 dB); Duration 0.24 ms; number of flashes: 1, Filter: 50 Hz, Impedance threshold: 50 kΩ. For scotopic ERGs, the A-wave amplitudes were measured from the baseline to the peak of the negative potential, whereas B-wave amplitudes were measured from the trough of the A-wave to the peak of the positive potential. The recordings obtained from these analyses were tabulated and normalized (%) for each eye. Group means, standard deviation, and median values were calculated, considering each eye from one animal as a separate value. ERG recordings in mice were performed as previously described.
(§1) Sixty-four animals were selected based on good health and on scotopic electroretinogram performed before induction when the A-wave amplitude of both eyes was in the range of the global mean (all animals) of A-wave amplitude ± 1.96 SD. Animals were then randomized into the study groups using a macro function in Excel® software based on the A-wave amplitude of both eyes (mean value). On Day 0, BIO203, negative controls, and comparator (N-tert-Butyl-a-phenylnitrone (PBN)) were intraperitoneally injected using a 25 G needle in rats that have been dark-adapted for 36 h. Individually housed rats were then exposed for 6 h (±5 min) to a continuous blue, fluorescent light (400–540 nm) in clear plastic cages. After exposure and administration, the rats were placed in a dark room for 24 h (±1 h) and then were returned to rearing cyclic light conditions.

[3] = tested on: albino rats exposed to blue-light-induced photoreceptor degeneration; experiment: Blue-light damage (BLD) study in albino rats: retinal histology (photoreceptor layers); assay type: in vivo, rat; details: 50 mg/kg, four IP administrations; 6 h blue-light exposure; p < 0.0001
Description: At the end of the measurement period on Day 7, rats were euthanized by an intraperitoneal injection of pentobarbital. Immediately after euthanasia, both eyeballs were sampled, fixed in Davidson’s solution, and processed for histology. Sections (5 to 7 µm thick) were performed along the vertical meridian and stained with Haematoxylin/Eosin stain. The vertical meridian included the optic nerve. […] The thickness of the outer nuclear layer was measured on each point. […] Histology and photoreceptor counting in mice were performed as previously described.
as §1

SMILES: CO[C@@H]1CCCN(C(=O)/C=C/C(C)=C/C=C/C(C)=C/C=C/C=C(C)/C=C/C=C(C)\C=C\C(=O)O)C1 [BIO203-R]
- protective activity compared with BIO203 (racemate) [1]: same protective activity as BIO203

SMILES: CO[C@H]1CCCN(C(=O)/C=C/C(C)=C/C=C/C(C)=C/C=C/C=C(C)/C=C/C=C(C)\C=C\C(=O)O)C1 [BIO203-S]
- protective activity compared with BIO203 (racemate) [1]: same protective activity as BIO203

SMILES: CC(C)(C)[N+]([O-])=Cc1ccccc1 [PBN, N-tert-Butyl-a-phenylnitrone, reference compound]
- effect on visual function (ERG A-wave and B-wave) [2]: protected the visual functions
- preservation of retinal structure (photoreceptor layers) [3]: partially preserved the retinal structure
